{"source": "ChEMBL document CHEMBL3885881", "about": "“DrugMatrix”", "species_on_record": "Rattus norvegicus", "assay": "DrugMatrix - Regimen: Daily Repeat", "format": "toxicity, organism-based, Sprague-Dawley", "set-up": "regimen Daily Repeat, gender Male, age 6-8 weeks", "conditions": "in vivo, po, route oral GAVAGE, […]; for MEAN CORPUSCULAR HEMOGLOBIN CONCENTRATION / MEAN CORPUSCULAR VOLUME / MONOCYTE / NEUTROPHIL / NUCLEATED RED BLOOD CELLS / PLATELET COUNT / ABSOLUTE BASOPHIL / ABSOLUTE EOSINOPHIL / ABSOLUTE LYMPHOCYTE / ABSOLUTE MONOCYTE / ABSOLUTE SEGMENTED NEUTROPHIL / BASOPHIL / EOSINOPHIL / ERYTHROCYTE COUNT / HEMATOCRIT / HEMOGLOBIN / LEUKOCYTE COUNT / LYMPHOCYTE / MEAN CORPUSCULAR HEMOGLOBIN: tissue Blood; for ALANINE AMINOTRANSFERASE / ALBUMIN / ALKALINE PHOSPHATASE / ASPARTATE AMINOTRANSFERASE / BLOOD UREA NITROGEN / CARBON DIOXIDE / CHLORIDE / CHOLESTEROL / CREATINE PHOSPHOKINASE / CREATININE / GLUCOSE / LACTATE DEHYDROGENASE / LIPASE / PHOSPHORUS / SODIUM / TOTAL BILIRUBIN / TOTAL PROTEIN / URIC ACID: tissue Plasma", "key": {"[1]": {"conditions": "24 mg/kg, 120 h, dose level M1, time 5 day"}, "[2]": {"conditions": "47 mg/kg, 72 h, dose level High, time 3 day"}, "[3]": {"conditions": "47 mg/kg, 120 h, dose level High, time 5 day"}}, "data": [{"molecule": "Nc1nc2nc[nH]c2c(=S)[nH]1", "note": "[THIOGUANINE]", "values": [{"measurement": "MEAN CORPUSCULAR HEMOGLOBIN CONCENTRATION", "setting": "[1]", "value": 39.8, "unit": "G/DL"}, {"measurement": "MEAN CORPUSCULAR VOLUME", "setting": "[1]", "value": 60.83, "unit": "fL"}, {"measurement": "MONOCYTE", "setting": "[1]", "value": 0.33, "unit": "%"}, {"measurement": "NEUTROPHIL", "setting": "[1]", "value": 7.33, "unit": "%"}, {"measurement": "NUCLEATED RED BLOOD CELLS", "setting": "[1]", "value": "0 /100WBC"}, {"measurement": "PLATELET COUNT", "setting": "[1]", "value": 1721.33, "unit": "x10E3/uL"}, {"measurement": "ALANINE AMINOTRANSFERASE", "setting": "[1]", "value": 38.67, "unit": "u/L"}, {"measurement": "ALBUMIN", "setting": "[1]", "value": 4.13, "unit": "G/DL"}, {"measurement": "ALKALINE PHOSPHATASE", "setting": "[1]", "value": 266.67, "unit": "u/L"}, {"measurement": "ASPARTATE AMINOTRANSFERASE", "setting": "[1]", "value": 89.33, "unit": "u/L"}, {"measurement": "BLOOD UREA NITROGEN", "setting": "[1]", "value": 11, "unit": "mg/dL"}, {"measurement": "CARBON DIOXIDE", "setting": "[1]", "value": 25, "unit": "mmol/L"}, {"measurement": "CHLORIDE", "setting": "[1]", "value": 104.67, "unit": "MEQ/L"}, {"measurement": "CHOLESTEROL", "setting": "[1]", "value": 66, "unit": "mg/dL"}, {"measurement": "CREATINE PHOSPHOKINASE", "setting": "[1]", "value": 417.33, "unit": "u/L"}, {"measurement": "CREATININE", "setting": "[1]", "value": 0.23, "unit": "mg/dL"}, {"measurement": "GLUCOSE", "setting": "[1]", "value": 127.67, "unit": "mg/dL"}, {"measurement": "LACTATE DEHYDROGENASE", "setting": "[1]", "value": 349, "unit": "u/L"}, {"measurement": "LIPASE", "setting": "[1]", "value": 9.67, "unit": "u/L"}, {"measurement": "PHOSPHORUS", "setting": "[1]", "value": 10.33, "unit": "mg/dL"}, {"measurement": "SODIUM", "setting": "[1]", "value": 151.33, "unit": "MEQ/L"}, {"measurement": "TOTAL BILIRUBIN", "setting": "[1]", "value": 0.33, "unit": "mg/dL"}, {"measurement": "TOTAL PROTEIN", "setting": "[1]", "value": 5.97, "unit": "G/DL"}, {"measurement": "URIC ACID", "setting": "[1]", "value": 1.17, "unit": "mg/dL"}, {"measurement": "ABSOLUTE BASOPHIL", "setting": "[2]", "value": 0, "unit": "CELLS/uL"}, {"measurement": "ABSOLUTE EOSINOPHIL", "setting": "[2]", "value": 53.33, "unit": "CELLS/uL"}, {"measurement": "ABSOLUTE LYMPHOCYTE", "setting": "[2]", "value": 4257, "unit": "CELLS/uL"}, {"measurement": "ABSOLUTE MONOCYTE", "setting": "[2]", "value": 26.67, "unit": "CELLS/uL"}, {"measurement": "ABSOLUTE SEGMENTED NEUTROPHIL", "setting": "[2]", "value": 4229.67, "unit": "CELLS/uL"}, {"measurement": "BASOPHIL", "setting": "[2]", "value": 0, "unit": "%"}, {"measurement": "EOSINOPHIL", "setting": "[2]", "value": 0.67, "unit": "%"}, {"measurement": "ERYTHROCYTE COUNT", "setting": "[2]", "value": 7.05, "unit": "x10E6/uL"}, {"measurement": "HEMATOCRIT", "setting": "[2]", "value": 43.87, "unit": "%"}, {"measurement": "HEMOGLOBIN", "setting": "[2]", "value": 17.33, "unit": "G/DL"}, {"measurement": "LEUKOCYTE COUNT", "setting": "[2]", "value": 8.57, "unit": "x10E3/uL"}, {"measurement": "LYMPHOCYTE", "setting": "[2]", "value": 50, "unit": "%"}, {"measurement": "MEAN CORPUSCULAR HEMOGLOBIN", "setting": "[2]", "value": 24.57, "unit": "pg"}, {"measurement": "MEAN CORPUSCULAR HEMOGLOBIN CONCENTRATION", "setting": "[2]", "value": 39.5, "unit": "G/DL"}, {"measurement": "MEAN CORPUSCULAR VOLUME", "setting": "[2]", "value": 62.23, "unit": "fL"}, {"measurement": "MONOCYTE", "setting": "[2]", "value": 0.33, "unit": "%"}, {"measurement": "NEUTROPHIL", "setting": "[2]", "value": 49, "unit": "%"}, {"measurement": "NUCLEATED RED BLOOD CELLS", "setting": "[2]", "value": "0 /100WBC"}, {"measurement": "PLATELET COUNT", "setting": "[2]", "value": 1024.33, "unit": "x10E3/uL"}, {"measurement": "ALANINE AMINOTRANSFERASE", "setting": "[2]", "value": 35.67, "unit": "u/L"}, {"measurement": "ALBUMIN", "setting": "[2]", "value": 3.03, "unit": "G/DL"}, {"measurement": "ALKALINE PHOSPHATASE", "setting": "[2]", "value": 125, "unit": "u/L"}, {"measurement": "ASPARTATE AMINOTRANSFERASE", "setting": "[2]", "value": 152.67, "unit": "u/L"}, {"measurement": "BLOOD UREA NITROGEN", "setting": "[2]", "value": 21, "unit": "mg/dL"}, {"measurement": "CARBON DIOXIDE", "setting": "[2]", "value": 16, "unit": "mmol/L"}, {"measurement": "CHLORIDE", "setting": "[2]", "value": 97, "unit": "MEQ/L"}, {"measurement": "CHOLESTEROL", "setting": "[2]", "value": 46.67, "unit": "mg/dL"}, {"measurement": "CREATINE PHOSPHOKINASE", "setting": "[2]", "value": 4333, "unit": "u/L"}, {"measurement": "CREATININE", "setting": "[2]", "value": 0.17, "unit": "mg/dL"}, {"measurement": "GLUCOSE", "setting": "[2]", "value": 263.33, "unit": "mg/dL"}, {"measurement": "LACTATE DEHYDROGENASE", "setting": "[2]", "value": 399, "unit": "u/L"}, {"measurement": "LIPASE", "setting": "[2]", "value": 23.33, "unit": "u/L"}, {"measurement": "PHOSPHORUS", "setting": "[2]", "value": 14.77, "unit": "mg/dL"}, {"measurement": "SODIUM", "setting": "[2]", "value": 139.73, "unit": "MEQ/L"}, {"measurement": "TOTAL BILIRUBIN", "setting": "[2]", "value": 0.17, "unit": "mg/dL"}, {"measurement": "TOTAL PROTEIN", "setting": "[2]", "value": 4.33, "unit": "G/DL"}, {"measurement": "URIC ACID", "setting": "[2]", "value": 3.1, "unit": "mg/dL"}, {"measurement": "ABSOLUTE BASOPHIL", "setting": "[3]", "value": 0, "unit": "CELLS/uL"}, {"measurement": "ABSOLUTE EOSINOPHIL", "setting": "[3]", "value": 0, "unit": "CELLS/uL"}, {"measurement": "ABSOLUTE LYMPHOCYTE", "setting": "[3]", "value": 1200, "unit": "CELLS/uL"}, {"measurement": "ABSOLUTE MONOCYTE", "setting": "[3]", "value": 72, "unit": "CELLS/uL"}, {"measurement": "ABSOLUTE SEGMENTED NEUTROPHIL", "setting": "[3]", "value": 1128, "unit": "CELLS/uL"}, {"measurement": "BASOPHIL", "setting": "[3]", "value": 0, "unit": "%"}, {"measurement": "EOSINOPHIL", "setting": "[3]", "value": 0, "unit": "%"}, {"measurement": "ERYTHROCYTE COUNT", "setting": "[3]", "value": 6.48, "unit": "x10E6/uL"}, {"measurement": "HEMATOCRIT", "setting": "[3]", "value": 41.1, "unit": "%"}, {"measurement": "HEMOGLOBIN", "setting": "[3]", "value": 15.9, "unit": "G/DL"}, {"measurement": "LEUKOCYTE COUNT", "setting": "[3]", "value": 2.4, "unit": "x10E3/uL"}, {"measurement": "LYMPHOCYTE", "setting": "[3]", "value": 50, "unit": "%"}, {"measurement": "MEAN CORPUSCULAR HEMOGLOBIN", "setting": "[3]", "value": 24.5, "unit": "pg"}, {"measurement": "MEAN CORPUSCULAR HEMOGLOBIN CONCENTRATION", "setting": "[3]", "value": 38.7, "unit": "G/DL"}, {"measurement": "MEAN CORPUSCULAR VOLUME", "setting": "[3]", "value": 63.5, "unit": "fL"}, {"measurement": "MONOCYTE", "setting": "[3]", "value": 3, "unit": "%"}, {"measurement": "NEUTROPHIL", "setting": "[3]", "value": 47, "unit": "%"}, {"measurement": "NUCLEATED RED BLOOD CELLS", "setting": "[3]", "value": "0 /100WBC"}, {"measurement": "PLATELET COUNT", "setting": "[3]", "value": 877, "unit": "x10E3/uL"}, {"measurement": "ALANINE AMINOTRANSFERASE", "setting": "[3]", "value": 127, "unit": "u/L"}, {"measurement": "ALBUMIN", "setting": "[3]", "value": 3.5, "unit": "G/DL"}, {"measurement": "ALKALINE PHOSPHATASE", "setting": "[3]", "value": 205, "unit": "u/L"}, {"measurement": "ASPARTATE AMINOTRANSFERASE", "setting": "[3]", "value": 290, "unit": "u/L"}, {"measurement": "BLOOD UREA NITROGEN", "setting": "[3]", "value": 35, "unit": "mg/dL"}, {"measurement": "CARBON DIOXIDE", "setting": "[3]", "value": 25, "unit": "mmol/L"}, {"measurement": "CHLORIDE", "setting": "[3]", "value": 100, "unit": "MEQ/L"}, {"measurement": "CHOLESTEROL", "setting": "[3]", "value": 56, "unit": "mg/dL"}, {"measurement": "CREATINE PHOSPHOKINASE", "setting": "[3]", "value": 284, "unit": "u/L"}, {"measurement": "CREATININE", "setting": "[3]", "value": 0.1, "unit": "mg/dL"}, {"measurement": "GLUCOSE", "setting": "[3]", "value": 211, "unit": "mg/dL"}, {"measurement": "LACTATE DEHYDROGENASE", "setting": "[3]", "value": 156, "unit": "u/L"}, {"measurement": "LIPASE", "setting": "[3]", "value": 6, "unit": "u/L"}, {"measurement": "PHOSPHORUS", "setting": "[3]", "value": 9.3, "unit": "mg/dL"}, {"measurement": "SODIUM", "setting": "[3]", "value": 141.5, "unit": "MEQ/L"}, {"measurement": "TOTAL BILIRUBIN", "setting": "[3]", "value": 0.2, "unit": "mg/dL"}, {"measurement": "TOTAL PROTEIN", "setting": "[3]", "value": 6.1, "unit": "G/DL"}, {"measurement": "URIC ACID", "setting": "[3]", "value": 1.5, "unit": "mg/dL"}]}]}
